# Source: US6521605B1, “Amidophosphate derivatives” (Eli Lilly and Company, priority 1998, dated 2003)
# Molecular target: T1, human GluR4B receptor (Homo sapiens, UniProt P48058)
# T1 construct: expressed in transfected cells
# Test: potentiation of agonist-induced excitability of human GluR4B receptor expressed in HEK 293 cells
# Assay type: cell-based
# Conditions: human GluR4B expressed in HEK 293 cells
# Source text: The ability of compounds of formula I to potentiate glutamate receptor-mediated response may be determined using fluorescent calcium indicator dyes (Molecular Probes, Eugene, Oreg., Fluo-3) and by measuring glutamate-evoked efflux of calcium into GluR4 transfected HEK293 cells, as described in more detail below.
# In one test, 96 well plates containing confluent monolayers of HEK cells stably expressing human GluR4B (obtained as described in European Patent Application Publication Number EP-A1-583917) are prepared. The tissue culture medium in the wells is then discarded, and the wells are each washed once with 200 μl of buffer (glucose, 10 mM, sodium chloride, 138 mM, magnesium chloride, 1 mM, potassium chloride, 5 mM, calcium chloride, 5 mM, N-[2-hydroxyethyl]-piperazine-N-[2-ethanesulfonic acid], 10 mM, to pH 7.1 to 7.3). […]
# Each test is then performed as follows. […] A second fluorescent reading is taken after 5 minutes incubation. 15 μl of 400 μM glutamate solution is then added to each well (final glutamate concentration 100 μM), and a third reading is taken. The activities of test compounds and cyclothiazide solutions are determined by subtracting the second from the third reading (fluorescence due to addition of glutamate in the presence or absence of test compound or cyclothiazide) and are expressed relative to enhance fluorescence produced by 100 μM, cyclothiazide.
# T1 sequence (P48058 21-902): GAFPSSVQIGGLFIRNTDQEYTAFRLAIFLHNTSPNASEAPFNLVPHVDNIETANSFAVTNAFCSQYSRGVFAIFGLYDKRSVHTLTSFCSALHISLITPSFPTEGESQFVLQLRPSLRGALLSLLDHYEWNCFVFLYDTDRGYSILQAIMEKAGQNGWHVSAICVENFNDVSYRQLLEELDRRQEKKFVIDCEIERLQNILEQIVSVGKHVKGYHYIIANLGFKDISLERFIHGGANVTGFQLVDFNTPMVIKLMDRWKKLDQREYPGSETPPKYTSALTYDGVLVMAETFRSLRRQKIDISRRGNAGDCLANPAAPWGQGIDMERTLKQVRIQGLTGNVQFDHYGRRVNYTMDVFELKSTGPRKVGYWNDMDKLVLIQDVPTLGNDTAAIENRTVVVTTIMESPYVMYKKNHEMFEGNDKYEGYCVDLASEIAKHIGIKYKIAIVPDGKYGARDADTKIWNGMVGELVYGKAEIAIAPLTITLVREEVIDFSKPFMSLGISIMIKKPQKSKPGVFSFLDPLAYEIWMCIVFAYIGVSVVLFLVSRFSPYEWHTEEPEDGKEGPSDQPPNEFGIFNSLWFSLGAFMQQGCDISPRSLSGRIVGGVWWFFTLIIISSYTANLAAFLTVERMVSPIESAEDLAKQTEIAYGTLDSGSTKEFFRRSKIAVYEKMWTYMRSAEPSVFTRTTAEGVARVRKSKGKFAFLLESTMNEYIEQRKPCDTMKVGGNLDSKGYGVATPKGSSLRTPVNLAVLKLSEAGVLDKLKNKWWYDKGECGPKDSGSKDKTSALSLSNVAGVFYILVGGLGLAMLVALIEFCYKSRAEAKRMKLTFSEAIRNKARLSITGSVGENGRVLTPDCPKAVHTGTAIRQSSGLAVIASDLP
smiles,measurement,value
NS(=O)(=O)c1cc2c(cc1Cl)NC(C1CC3C=CC1C3)NS2(=O)=O (stereo not shown) [cyclothiazide],potentiation of agonist-induced excitability of human GluR4B receptor,potentiate agonist-induced excitability
